Measurements published in article PMC3655514 (Acta crystallographica. Section D, Biological …, 2010).
Where two headings read alike, the source gives them in different places. Blank lines part the entries; values can stand above or below the compound they belong to.

Tests used:
[1] = biological target: T1, pteridine reductase (TbPTR1) (Trypanosoma brucei, UniProt O76290); experiment: crystal structure at […] Å; format: biochemical
[2] = biological target: T1, pteridine reductase (TbPTR1); experiment: crystal structures; format: binding
[3] = biological target: T1, pteridine reductase (TbPTR1); experiment: crystal structure at […] Å; format: biochemical; remark: listed apart in the source
[4] = biological target: T1, pteridine reductase (TbPTR1); experiment: crystal structure at […] Å; format: biochemical; remark: listed apart in the source
[5] = biological target: T1, pteridine reductase (TbPTR1); experiment: crystal structure at […] Å; format: biochemical; remark: listed apart in the source

SMILES: Nc1nc(N)nc(NC2CC2)n1 [Cyromazine, N-cyclopropyl-1,3,5-triazine-2,4,6-triamine]
- Ki [1]: > 35000 nM

SMILES: NC(=O)c1ccc[n+]([C@@H]2O[C@H](COP(=O)(O)OP(=O)(O)OC[C@H]3O[C@@H](n4cnc5c(N)ncnc54)[C@H](OP(=O)(O)O)[C@@H]3O)[C@@H](O)[C@H]2O)c1 [NADP+]
- crystal structures (complexes with pemetrexed, trimetrexate, PY848) [2]: Crystals of TbPTR1 in a binary complex with oxidized cofactor (NADP^+) were grown

SMILES: Nc1nc2[nH]cc(CCc3ccc(C(=O)N[C@@H](CCC(=O)O)C(=O)O)cc3)c2c(=O)[nH]1 [Pemetrexed, 2-{4-[2-(4-amino-2-oxo-3,5,7-triazabicyclo[4.3.0]nona-3,8,10-trien-9-yl)ethyl]benzoyl}aminopentanedioic acid]
- Ki [4]: ~30 nM

More lines, now with the values ahead:

- Ki [3]: ~70 nM
SMILES: COc1ccc(OC)c(CCc2csc3nc(N)nc(N)c23)c1 [PY848, 2,4-diamino-5-[2-(2,5-dimethoxyphenyl)ethyl]thieno[2,3-d]-pyrimidine]

- Ki [5]: ~70 nM
SMILES: COc1cc(NCc2ccc3nc(N)nc(N)c3c2C)cc(OC)c1OC [Trimetrexate, 5-methyl-6-[(3,4,5-trimethoxyphenyl)aminomethyl]quinazoline-2,4-diamine]
